Measurements: patent publication US20090209633A1, “Treatment of Pain With Resiniferatoxin and Related Analogs” (priority 2006, published 2009)

Assays:
[1] = molecular target: T1, rat TRPV1 (Rattus norvegicus, UniProt O35433); assay: Whole-cell currents in Xenopus laevis oocytes expressing TRPV1 (double-electrode voltage clamp); format: cell-based; settings: ruthenium red 100 μM; RTX 10 nM repeated application
T1 construct: expressed in transfected cells; host or cells: Xenopus laevis oocytes injected with TRPV1 cRNA
Protocol: Rat TRPV1 dcRNA. Cloned rat TRPV1 was obtained from the Julius Lab at the University of California San Francisco. TRPV1 cRNA was obtained using standard techniques known to those of skill in the art.
(§1) Electrophysiology. Whole-cell and single-channel currents were recorded from rat DRG neurons in culture and from Xenopus laevis oocytes injected with rat TRPV1 cRNA. Animals were cared for according to the standards of the National Institutes of Health (NIH). All animal use protocols were approved by Southern Illinois University School of Medicine Animal Care Committee.
Oocytes were obtained by an abdominal incision after anaesthetizing the frog by immersion in a 0.05% solution of 3-aminobenzoic acid ethyl ester (MS222). Animals were killed by a subcutaneous injection of a 2% solution of MS222 according to NIH guidelines. One day after separating the oocytes from the follicular layer, 50-70 nl TRPV1 cRNA was injected using a Drummond Nanoject (Drummond Scientific Co., Broomall, Pa., USA). Oocytes were used for recording from 3 days after the injection. Double-electrode voltage clamp was performed using a Warner amplifier (Warner Instruments, Hamden, Conn., USA). Data were digitized and stored on videotape or directly stored on the computer using a LabView interface (National Instruments, Austin, Tex., USA). Experiments were performed at 21-23° C. Oocytes were placed in a Perspex chamber superfused (5-10 ml min^−1) with Ca^2+-free Ringer solution containing (mM): NaCl 100, KCl 2.5 and Hepes 5; pH adjusted to 7.35 with NaOH. Current-voltage relationships were measured using 1-s voltage ramps from −80 to +80 mV.
This example tests the activation of whole-cell currents in oocytes by RTX. Whole-cell currents were recorded from oocytes heterologously expressing TRPV1. […] Agonist-induced currents are shown after subtracting the leak current in the absence of the agonist. […] In order to quantify this, we calculated the ratio of outward and inward currents. […] PKC activation increases sensitivity as well as TRPV1 translocation. […] (Szallasi et al. 1990b; Caterina et al. 1997; Marshall et al. 2003.)

[2] = molecular target: T2, native TRPV1 (Rattus norvegicus, UniProt O35433); assay: Whole-cell currents in cultured embryonic DRG neurons (patch clamp); format: cell-based; settings: capsazepine 10 μM
T2 construct: RTX-induced membrane currents on native TRPV1 in embryonic DRG neurons grown in culture; endogenous in cells; host or cells: primary rat E18 DRG neurons
Protocol: as §1
Primary DRG neuronal cultures were prepared from embryonic day 18 (E18) rat embryos. Adult pregnant rats were killed with an overdose of isoflurane. DRG were dissected and the cells were dissociated by triturating with a fire-polished glass pipette. Cells were cultured in Neurobasal medium (Life Technologies, Buffalo, N.Y., USA), supplemented with 10% fetal bovine serum (FBS), and grown on poly-D-lysine-coated glass coverslips. Cells were used from 5 to 15 days after plating. Small diameter (<30 μm) rounded neurons were selected for patch-clamp experiments. […] The Giga-seal patch-clamp technique was used to record whole-cell currents. For perforated-patch recordings, the bath solution contained (mM): sodium gluconate 140, KCl 2.5, Hepes 10, MgCl2 1 and ethylene glycol bis(2-aminoethyl ether)-N,N,N′N′-tetraacetic acid (EGTA) 1.5 (pH adjusted to 7.35 with NaOH), and the pipette solution contained (mM): sodium gluconate 130, NaCl 10, KCl 2.5, Hepes 10, MgCl2 1, EGTA 1.5 and 240 μg/ml^−1 amphotericin B (pH adjusted to 7.35 with NaOH). For current-clamp experiments the pipette solution contained (mM): potassium gluconate 130, NaCl 10, MgCl2 1, EGTA 0.2, K2ATP 1 and Hepes 10; pH adjusted to 7.35 with NaOH. Extracellular solution for current- and voltage-clamp experiments contained (mM): NaCl 140, KCl 4, MgCl2 1 and Hepes 10; pH adjusted to 7.35 with NaOH. Currents were recorded using a WPC 100 patch-clamp amplifier (E.S.F. Electronic, Goettingan, Germany). Data were filtered at 10 kHz, digitized (VR-10B, Instrutech Corp., Great Neck, N.Y., USA) and stored on videotapes or directly stored in the computer using a LabView interface. For analysis of whole-cell currents, data were filtered at 1 kHz (−3 db frequency with an 8-pole low-pass Bessel filter, Warner Instruments, LPF-8) and digitized at 2 kHz.
This example tests the activation of whole-cell current in DRG neurons by RTX. We determined the properties of RTX-induced membrane currents on native TRPV1 in embryonic DRG neurons grown in culture. […] Protons were not used to elicit currents because of the presence of acid-sensitive ion channels in these neurons.

T2 sequence (O35433 whole entry): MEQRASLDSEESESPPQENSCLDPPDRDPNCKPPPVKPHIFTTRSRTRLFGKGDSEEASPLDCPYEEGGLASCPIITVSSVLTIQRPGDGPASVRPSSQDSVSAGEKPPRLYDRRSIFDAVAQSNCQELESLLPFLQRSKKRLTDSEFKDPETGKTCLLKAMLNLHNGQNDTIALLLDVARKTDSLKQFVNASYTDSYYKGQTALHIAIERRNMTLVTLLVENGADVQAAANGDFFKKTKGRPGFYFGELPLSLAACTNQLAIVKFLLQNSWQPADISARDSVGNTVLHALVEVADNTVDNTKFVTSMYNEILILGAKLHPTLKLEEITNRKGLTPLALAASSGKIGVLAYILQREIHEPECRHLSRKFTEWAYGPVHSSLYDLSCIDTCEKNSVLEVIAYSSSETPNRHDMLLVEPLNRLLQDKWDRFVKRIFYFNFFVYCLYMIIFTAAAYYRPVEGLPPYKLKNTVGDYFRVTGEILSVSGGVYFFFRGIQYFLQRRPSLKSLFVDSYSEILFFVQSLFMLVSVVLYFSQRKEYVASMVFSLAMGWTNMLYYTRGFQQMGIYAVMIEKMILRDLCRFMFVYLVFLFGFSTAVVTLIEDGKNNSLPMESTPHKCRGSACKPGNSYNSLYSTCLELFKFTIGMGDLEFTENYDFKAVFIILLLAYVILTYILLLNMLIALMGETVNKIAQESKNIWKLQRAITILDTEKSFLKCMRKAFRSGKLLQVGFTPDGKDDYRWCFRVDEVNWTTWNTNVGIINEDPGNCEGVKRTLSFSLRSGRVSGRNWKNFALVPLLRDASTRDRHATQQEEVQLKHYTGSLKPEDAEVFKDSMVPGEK
T1 sequence (O35433 whole entry): as above

For N.N.N.N.N.N.N.N.N.N.N.N.N.N.[Cl-].[Cl-].[Cl-].[Cl-].[Cl-].[Cl-].[O-2].[O-2].[Ru+3].[Ru+3].[Ru+4] [ruthenium red, reference compound], the “block of RTX-induced current” value [1] was “readily blocked”.
In the case of Oc1cc2c(cc1O)CN(C(=S)NCCc1ccc(Cl)cc1)CCC2 [capsazepine], the “block of current induced by capsaicin (1 μM) and RTX (10 nM)” value [2] is reported as “completely blocked”, the “rate of block induced by capsazepine” value ([2]; RTX-induced (10 nM) currents) is reported as 612.3 ± 219 s and the “rate of block induced by capsazepine” value ([2]; capsaicin-induced (1 μM) currents) is reported as 18.4 ± 2.8 s.
